Tested on: Gram-positive and Gram-negative bacteria
Test: In vitro antibacterial assay, pooled statement over all tested strains
Format: cell-based, S. aureus, B. subtilis, S. typhi, E. coli

Compound | MIC
O=c1c(O)c(-c2ccc(O)c(O)c2)oc2cc(O)cc(O)c12 [Compound 1, quercetin] | 0.0692 to 0.151 µM
O=c1c(O)c(-c2ccc(O)cc2)oc2cc(O)cc(O)c12 [Compound 3, kaempferol] | > 100 µg/mL

From publication PMC7885310 (3 Biotech, 2021)
